Measured values: ChEMBL document CHEMBL1201862, “PubChem BioAssay data set” (2004)
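48-hour exposure; five concentrations; linearly interpolated endpoints. Here, GI50 denotes the concentration required for 50% inhibition of growth.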 The source made the active and inactive calls. Rule as the data show it: active = GI50 up to about 1.1 µM and inactive = higher.

How the values were obtained:
Test in all cases: NCI tumour cell line growth inhibition, 48 h
KM12 = test system: KM12
SF-268 = test system: SF-268
RPMI-8226 = test system: RPMI-8226
HT-29 = test system: HT-29
M14 = test system: M14
RXF 393 = test system: RXF 393
SF-539 = test system: SF-539
SK-MEL-28 = test system: SK-MEL-28
HOP-92 = test system: HOP-92
SK-MEL-2 = test system: SK-MEL-2
COLO 205 = test system: COLO 205
NCI-H23 = test system: NCI-H23
Malme-3M = test system: Malme-3M
A498 = test system: A498
UACC-62 = test system: UACC-62
HCC 2998 = test system: HCC 2998
XF498 = test system: XF498
LXFL 529 = test system: LXFL 529
DLD-1 = test system: DLD-1
OVCAR-5 = test system: OVCAR-5
ACHN = test system: ACHN
HCT-116 = test system: HCT-116
NCI-H522 = test system: NCI-H522
EKVX = test system: EKVX
A549 = test system: A549
HL-60 = test system: HL-60
NCI-H460 = test system: NCI-H460
MOLT-4 = test system: MOLT-4
SNB-75 = test system: SNB-75
DMS-114 = test system: DMS-114
OVCAR-3 = test system: OVCAR-3
SF-295 = test system: SF-295
OVCAR-8 = test system: OVCAR-8
OVCAR-4 = test system: OVCAR-4
SN12C = test system: SN12C
SK-OV-3 = test system: SK-OV-3
HOP-62 = test system: HOP-62
U-251 = test system: U-251
CAKI-1 = test system: CAKI-1
HCT-15 = test system: HCT-15
KM-20L2 = test system: KM-20L2
M19-MEL = test system: M19-MEL
K562 = test system: K562
NCI-H226 = test system: NCI-H226
UACC-257 = test system: UACC-257
DMS-273 = test system: DMS-273
SNB-19 = test system: SNB-19
CCRF-CEM = test system: CCRF-CEM
UO-31 = test system: UO-31
SK-MEL-5 = test system: SK-MEL-5
IGROV-1 = test system: IGROV-1
SR = test system: SR
TK-10 = test system: TK-10
SW-620 = test system: SW-620
HOP-18 = test system: HOP-18
SNB-78 = test system: SNB-78
LOX IMVI = test system: LOX IMVI
786-0 = test system: 786-0

Measured: GI50

CC(C)OP(=O)(OC(C)C)c1ncn(-c2ccc([N+](=O)[O-])cc2)n1
inactive: KM12 > 100 µM | SF-268 > 100 µM | RPMI-8226 > 100 µM | HT-29 > 100 µM | M14 > 100 µM | RXF 393 > 100 µM | SF-539 > 100 µM | SK-MEL-28 > 100 µM | HOP-92 > 100 µM | SK-MEL-2 > 100 µM | COLO 205 > 100 µM | NCI-H23 > 100 µM | Malme-3M > 100 µM | A498 > 100 µM | UACC-62 > 100 µM | HCC 2998 86.7 µM | XF498 > 100 µM | LXFL 529 > 100 µM | DLD-1 > 100 µM | OVCAR-5 > 100 µM | ACHN > 100 µM | HCT-116 > 100 µM | NCI-H522 > 100 µM | EKVX > 100 µM | A549 > 100 µM | HL-60 > 100 µM | NCI-H460 > 100 µM | MOLT-4 > 100 µM | SNB-75 41.1 µM | DMS-114 > 100 µM | OVCAR-3 > 100 µM | SF-295 > 100 µM | OVCAR-8 > 100 µM | OVCAR-4 > 100 µM | SN12C > 100 µM | SK-OV-3 > 100 µM | HOP-62 > 100 µM | U-251 > 100 µM | CAKI-1 > 100 µM | KM-20L2 > 100 µM | M19-MEL > 100 µM | K562 > 100 µM | NCI-H226 > 100 µM | UACC-257 > 100 µM | DMS-273 > 100 µM | SNB-19 > 100 µM | CCRF-CEM > 100 µM | UO-31 > 100 µM | SK-MEL-5 > 100 µM | IGROV-1 > 100 µM | SR > 100 µM | TK-10 > 100 µM | SW-620 > 100 µM
> 100 µM: HCT-15

Nc1nc(Cl)c2ncn(CCCC(c3ccccc3)P(=O)(O)O)c2n1 (stereo unspecified)
inactive: KM12 > 100 µM | SF-268 > 100 µM | RPMI-8226 > 100 µM | HT-29 > 100 µM | M14 > 100 µM | SF-539 > 100 µM | SK-MEL-28 > 100 µM | HOP-92 > 100 µM | SK-MEL-2 > 100 µM | COLO 205 > 100 µM | NCI-H23 > 100 µM | Malme-3M > 100 µM | A498 > 100 µM | UACC-62 > 100 µM | HCC 2998 > 100 µM | LXFL 529 > 100 µM | DLD-1 > 100 µM | OVCAR-5 > 100 µM | ACHN > 100 µM | HCT-116 > 100 µM | NCI-H522 > 100 µM | A549 > 100 µM | HL-60 > 100 µM | NCI-H460 > 100 µM | SNB-75 > 100 µM | DMS-114 > 100 µM | OVCAR-3 > 100 µM | SF-295 > 100 µM | OVCAR-8 > 100 µM | HOP-18 > 100 µM | SN12C > 100 µM | SK-OV-3 > 100 µM | HOP-62 > 100 µM | U-251 > 100 µM | CAKI-1 > 100 µM | KM-20L2 > 100 µM | M19-MEL > 100 µM | K562 > 100 µM | SNB-78 > 100 µM | UACC-257 > 100 µM | DMS-273 > 100 µM | LOX IMVI > 100 µM | SNB-19 > 100 µM | CCRF-CEM > 100 µM | UO-31 > 100 µM | SK-MEL-5 > 100 µM | IGROV-1 > 100 µM | SR > 100 µM | 786-0 > 100 µM | TK-10 > 100 µM | SW-620 > 100 µM
> 100 µM: HCT-15
